Molecular target: LRRK2 G2019S (Homo sapiens (Human), UniProt Q5S007, G2019S)
Assay: Adapta kinase assay (LRRK2_IC50 assay)
Format: biochemical
Conditions: Adapta TR-FRET, 1 h, room temperature
Protocol: In the Adapta™ kinase assay method (LRRK2_IC50 assay): the kinase reaction buffer contained kinase buffer S (Life Technologies, PV5213) and 2 mM DTT (Life Technologies, P2325). The kinases LRRK2 G2019S protein (PV4881) and ERM (LRRKtide, PV5093) were derived from Life Technologies. The Adapta™ universal kinase assay kit (Life Technologies, PV5099) contained the following components: Adapta™ Eu-anti-ADP antibody (PV5097; 4 μg); 10 μM AlexaFluor®647 ADP tracer (PV5098; 200 pmol); TR-FRET dilution buffer (PV3574; 100 mL); kinase quench buffer (P2825; 1 mL); 10 mM ATP (PV3227; 500 μL); and 10 mM ADP (PV5096; 500 μL). LRRK2-IN-1 (1234480-84-2, HY-10875) was derived from MedChem Express.
Adapta™ Kinase Assay Method
Adapta® universal kinase assay method is a uniform fluorescence-based immunoassay for detecting ADP. In contrast to ATP consumption assay, Adapta® assay method was very sensitive to ADP formation, with most signal changes occurring when initially 10-20% ATP was converted to ADP. This made Adapta® universal kinase assay method very suitable for low-activity kinases.
All assays were performed at room temperature (about 21° C.) and were linearly related to time and enzyme concentration under the conditions used. 1× kinase reaction buffer was prepared from 5× kinase buffer S stock solution (listed above), and 10 mL of 1× kinase reaction buffer was prepared by the addition of 2 mL of 5× stock solution to 8 mL of H2O. To the 1× kinase reaction buffer was added 20 μL of 1 M DTT.
A kinase reaction was performed in a low-volume 384-well plate in a volume of 10 μL. Typically, a Greiner plate was used (Catalog #3674 #, low volume, white wall, 784075). Other untreated assay plates that were not tested could also be suitable. The substrate concentration in the assay was 100 μM, and the 1× kinase reaction buffer consisted of 50 mM Tris-HCl (pH 8.5), 10 mM MgCl2, 1 mM EGTA, 0.01% Brij-35 and 2 mM DTT, as well as any other additives that could be necessary for the particular kinase. The kinase reaction was allowed to proceed for 1 h at room temperature, followed by the addition of a formulation of kinase quenching buffer (EDTA; 30 mM), Eu-labeled antibody (6 nM), and tracer (18.9 nM) in TR-FRET dilution buffer (5 μL). The final concentration of the antibody in the assay wells was 2 nM, the final concentration of the tracer was 6.3 nM, and the final concentration of EDTA was 10 mM. The plate was allowed to equilibrate at room temperature for at least 30 min and then read on a plate reader configured for Adapta™ TR-FRET.
The data provided in this document were generated by using BMG LABTECH PHERAstar plate reader and using appropriate filters and instrument settings for Adapta™. Test compounds were screened in wells with 1% DMSO (final). For 8-point titration, a 5-fold serial dilution was made on the basis of a starting concentration.

LRRK2 G2019S, sequence (Q5S007 whole entry G2019S): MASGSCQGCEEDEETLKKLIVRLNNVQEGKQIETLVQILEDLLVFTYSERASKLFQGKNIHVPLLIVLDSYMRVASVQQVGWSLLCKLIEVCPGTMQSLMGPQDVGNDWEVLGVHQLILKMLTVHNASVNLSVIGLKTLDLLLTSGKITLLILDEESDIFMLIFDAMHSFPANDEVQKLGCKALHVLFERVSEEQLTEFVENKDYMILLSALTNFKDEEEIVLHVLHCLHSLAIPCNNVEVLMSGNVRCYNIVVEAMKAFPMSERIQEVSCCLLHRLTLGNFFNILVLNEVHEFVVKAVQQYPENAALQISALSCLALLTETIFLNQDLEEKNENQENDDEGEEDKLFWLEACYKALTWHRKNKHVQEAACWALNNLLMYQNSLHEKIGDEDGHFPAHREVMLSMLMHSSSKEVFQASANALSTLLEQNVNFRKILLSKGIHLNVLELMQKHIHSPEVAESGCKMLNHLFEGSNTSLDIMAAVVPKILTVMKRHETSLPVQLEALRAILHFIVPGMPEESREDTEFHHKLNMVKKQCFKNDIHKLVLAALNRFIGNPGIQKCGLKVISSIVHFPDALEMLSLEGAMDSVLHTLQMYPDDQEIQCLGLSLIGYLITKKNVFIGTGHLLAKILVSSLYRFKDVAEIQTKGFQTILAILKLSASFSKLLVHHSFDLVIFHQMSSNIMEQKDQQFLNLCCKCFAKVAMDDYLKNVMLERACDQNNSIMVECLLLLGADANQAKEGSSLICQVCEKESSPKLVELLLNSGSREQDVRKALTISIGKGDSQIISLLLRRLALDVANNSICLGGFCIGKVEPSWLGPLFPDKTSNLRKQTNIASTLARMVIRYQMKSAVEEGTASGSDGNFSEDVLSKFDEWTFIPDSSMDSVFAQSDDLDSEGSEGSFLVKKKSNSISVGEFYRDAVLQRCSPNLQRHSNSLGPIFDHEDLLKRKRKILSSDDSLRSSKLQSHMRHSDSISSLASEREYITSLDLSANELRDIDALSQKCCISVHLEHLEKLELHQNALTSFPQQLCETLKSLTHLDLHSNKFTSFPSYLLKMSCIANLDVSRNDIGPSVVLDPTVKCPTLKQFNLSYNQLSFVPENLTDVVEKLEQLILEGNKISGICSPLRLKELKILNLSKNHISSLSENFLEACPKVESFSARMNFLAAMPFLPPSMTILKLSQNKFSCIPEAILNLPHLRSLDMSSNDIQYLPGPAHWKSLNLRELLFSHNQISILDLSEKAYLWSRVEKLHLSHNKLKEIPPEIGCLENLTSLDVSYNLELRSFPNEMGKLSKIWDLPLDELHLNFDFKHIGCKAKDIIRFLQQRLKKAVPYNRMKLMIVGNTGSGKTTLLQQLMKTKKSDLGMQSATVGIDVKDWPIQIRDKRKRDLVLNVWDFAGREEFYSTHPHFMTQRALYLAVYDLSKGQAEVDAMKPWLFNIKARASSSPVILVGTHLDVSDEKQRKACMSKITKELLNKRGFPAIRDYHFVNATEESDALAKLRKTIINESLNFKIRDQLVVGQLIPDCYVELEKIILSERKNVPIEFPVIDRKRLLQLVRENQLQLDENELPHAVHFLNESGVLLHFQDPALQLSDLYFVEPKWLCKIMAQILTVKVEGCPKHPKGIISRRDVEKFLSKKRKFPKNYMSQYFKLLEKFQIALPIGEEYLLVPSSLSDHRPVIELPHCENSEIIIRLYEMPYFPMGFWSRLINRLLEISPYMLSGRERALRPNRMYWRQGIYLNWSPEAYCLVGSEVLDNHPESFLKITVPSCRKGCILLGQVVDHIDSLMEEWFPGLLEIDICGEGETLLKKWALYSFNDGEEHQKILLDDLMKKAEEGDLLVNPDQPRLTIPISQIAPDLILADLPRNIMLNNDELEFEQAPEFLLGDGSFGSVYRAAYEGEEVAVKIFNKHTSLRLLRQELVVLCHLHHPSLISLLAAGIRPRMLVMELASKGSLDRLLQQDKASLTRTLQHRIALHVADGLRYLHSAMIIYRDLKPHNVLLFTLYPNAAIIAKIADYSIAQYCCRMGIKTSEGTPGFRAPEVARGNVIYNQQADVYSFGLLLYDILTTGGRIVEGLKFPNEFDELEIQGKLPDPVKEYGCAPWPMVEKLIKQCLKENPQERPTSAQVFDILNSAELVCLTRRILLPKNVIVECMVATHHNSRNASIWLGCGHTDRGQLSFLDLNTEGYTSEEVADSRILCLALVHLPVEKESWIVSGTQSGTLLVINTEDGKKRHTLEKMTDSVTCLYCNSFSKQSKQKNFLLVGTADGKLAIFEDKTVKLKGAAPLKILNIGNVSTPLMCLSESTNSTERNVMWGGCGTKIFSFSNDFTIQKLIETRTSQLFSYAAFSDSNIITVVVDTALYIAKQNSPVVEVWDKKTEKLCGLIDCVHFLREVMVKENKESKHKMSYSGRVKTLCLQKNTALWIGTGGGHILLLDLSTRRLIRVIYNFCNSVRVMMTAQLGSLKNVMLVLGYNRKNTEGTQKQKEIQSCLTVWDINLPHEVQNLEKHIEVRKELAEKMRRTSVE

| SMILES | IC50 [µM] |
| --- | --- |
| CCOc1nc(Nc2ccc(C(N3CCOCC3)C(F)(F)F)cc2OC)nc2[nH]ccc12 (single isomer, unassigned) [Compound 1, 4-ethoxy-N-(2-methoxy-4-(2,2,2-trifluoro-1-morpholinoethyl)phenyl)-7H-pyrrolo[2,3-d]pyrimidin-2-amine] | 0.012 |
| CCOc1nc(Nc2ccc(C(C)(N3CCOCC3)C(F)(F)F)cc2OC)nc2[nH]ccc12 (single isomer, unassigned) [Compound 2, 4-ethoxy-N-(2-methoxy-4-(1,1,1-trifluoro-2-morpholinylpropan-2-yl)phenyl)-7H-pyrrolo[2,3-d]pyrimidin-2-amine] | 0.055 |
| COc1cc(C(N2CCOCC2)C(F)(F)F)ccc1Nc1nc(OCC(F)(F)F)c2cc[nH]c2n1 (single isomer, unassigned) [Compound 5] | 0.017 |
| COc1cc(C(N2CCOCC2)C(F)(F)F)ccc1Nc1nc(OCC(F)(F)F)c2cc[nH]c2n1 (single isomer, unassigned) [Compound 6] | 0.012 |
| COc1cc(C(N2C[C@@H]3C[C@H]2CO3)C(F)(F)F)ccc1Nc1nc(OCC(F)(F)F)c2cc[nH]c2n1 (single isomer, unassigned) [Compound 7] | 0.047 |
| COc1cc(C(N2C[C@@H]3C[C@H]2CO3)C(F)(F)F)ccc1Nc1nc(OCC(F)(F)F)c2cc[nH]c2n1 (single isomer, unassigned) [Compound 8] | 0.052 |
| CCOc1nc(Nc2ccc(C(N3C[C@@H]4C[C@H]3CO4)C(F)(F)F)cc2OC)nc2[nH]ccc12 (single isomer, unassigned) [Compound 9] | 0.007 |
| CCOc1nc(Nc2ccc(C(N3C[C@@H]4C[C@H]3CO4)C(F)(F)F)cc2OC)nc2[nH]ccc12 (single isomer, unassigned) [Compound 10] | 0.011 |
| COCCOc1nc(Nc2ccc(C(N3CCOCC3)C(F)(F)F)cc2OC)nc2[nH]ccc12 (single isomer, unassigned) [Compound 11] | 0.006 |
| COCCOc1nc(Nc2ccc(C(N3CCOCC3)C(F)(F)F)cc2OC)nc2[nH]ccc12 (single isomer, unassigned) [Compound 12] | 0.012 |
| CCOc1nc(Nc2ccc(C(N3CCOCC3)C(F)(F)F)cc2F)nc2[nH]ccc12 (single isomer, unassigned) [Compound 13] | 0.031 |
| CCOc1nc(Nc2ccc(C(N3CCOCC3)C(F)(F)F)cc2F)nc2[nH]ccc12 (single isomer, unassigned) [Compound 14] | 0.03 |
| COc1cc(C(N2CCOCC2)C(F)(F)F)ccc1Nc1ncc2cc[nH]c2n1 (single isomer, unassigned) [Compound 15] | 0.328 |
| COc1cc(C(N2CCOCC2)C(F)(F)F)ccc1Nc1ncc2cc[nH]c2n1 (single isomer, unassigned) [Compound 16] | 0.43 |
| COc1cc(C(N2CCOCC2)C(F)(F)F)ccc1Nc1nc(C)c2cc[nH]c2n1 (single isomer, unassigned) [Compound 17] | 0.204 |
| COc1cc(C(N2CCOCC2)C(F)(F)F)ccc1Nc1nc(C)c2cc[nH]c2n1 (single isomer, unassigned) [Compound 18] | 0.253 |
| CCc1nc(Nc2ccc(C(N3CCOCC3)C(F)(F)F)cc2OC)nc2[nH]ccc12 (single isomer, unassigned) [Compound 19] | 0.332 |
| CCc1nc(Nc2ccc(C(N3CCOCC3)C(F)(F)F)cc2OC)nc2[nH]ccc12 (single isomer, unassigned) [Compound 20] | 0.235 |
| CCOc1nc(Nc2ccc(C(N3CCOCC3)C(F)(F)F)cc2Cl)nc2[nH]ccc12 (single isomer, unassigned) [Compound 21] | 0.119 |
| CCOc1nc(Nc2ccc(C(N3CCOCC3)C(F)(F)F)cc2Cl)nc2[nH]ccc12 (single isomer, unassigned) [Compound 22] | 0.138 |
| COc1nc(Nc2ccc(C(N3CCOCC3)C(F)(F)F)cc2Cl)nc2[nH]ccc12 (single isomer, unassigned) [Compound 23] | 0.147 |
| COc1nc(Nc2ccc(C(N3CCOCC3)C(F)(F)F)cc2Cl)nc2[nH]ccc12 (single isomer, unassigned) [Compound 24] | 0.122 |

Source: patent US20230391775A1, “SUBSTITUTED DIARYLAMINE COMPOUND, PHARMACEUTICAL COMPOSITION THEREOF, PREPARATION METHOD THEREFOR, AND USE THEREOF” (SUZHOU YABAO PHARMACEUTICAL R&D CO., LTD., priority 2020, published 2023)
